Source: patent EP3807270B1, “NOVEL HETEROARYL HETEROCYCLYL COMPOUNDS FOR THE TREATMENT OF AUTOIMMUNE DISEASE” (F. Hoffmann-La Roche AG, priority 2018, dated 2019)

Biological target: T1, hTLR7 (Homo sapiens, UniProt Q9NYK1)
T1 sequence (Q9NYK1 27-1049): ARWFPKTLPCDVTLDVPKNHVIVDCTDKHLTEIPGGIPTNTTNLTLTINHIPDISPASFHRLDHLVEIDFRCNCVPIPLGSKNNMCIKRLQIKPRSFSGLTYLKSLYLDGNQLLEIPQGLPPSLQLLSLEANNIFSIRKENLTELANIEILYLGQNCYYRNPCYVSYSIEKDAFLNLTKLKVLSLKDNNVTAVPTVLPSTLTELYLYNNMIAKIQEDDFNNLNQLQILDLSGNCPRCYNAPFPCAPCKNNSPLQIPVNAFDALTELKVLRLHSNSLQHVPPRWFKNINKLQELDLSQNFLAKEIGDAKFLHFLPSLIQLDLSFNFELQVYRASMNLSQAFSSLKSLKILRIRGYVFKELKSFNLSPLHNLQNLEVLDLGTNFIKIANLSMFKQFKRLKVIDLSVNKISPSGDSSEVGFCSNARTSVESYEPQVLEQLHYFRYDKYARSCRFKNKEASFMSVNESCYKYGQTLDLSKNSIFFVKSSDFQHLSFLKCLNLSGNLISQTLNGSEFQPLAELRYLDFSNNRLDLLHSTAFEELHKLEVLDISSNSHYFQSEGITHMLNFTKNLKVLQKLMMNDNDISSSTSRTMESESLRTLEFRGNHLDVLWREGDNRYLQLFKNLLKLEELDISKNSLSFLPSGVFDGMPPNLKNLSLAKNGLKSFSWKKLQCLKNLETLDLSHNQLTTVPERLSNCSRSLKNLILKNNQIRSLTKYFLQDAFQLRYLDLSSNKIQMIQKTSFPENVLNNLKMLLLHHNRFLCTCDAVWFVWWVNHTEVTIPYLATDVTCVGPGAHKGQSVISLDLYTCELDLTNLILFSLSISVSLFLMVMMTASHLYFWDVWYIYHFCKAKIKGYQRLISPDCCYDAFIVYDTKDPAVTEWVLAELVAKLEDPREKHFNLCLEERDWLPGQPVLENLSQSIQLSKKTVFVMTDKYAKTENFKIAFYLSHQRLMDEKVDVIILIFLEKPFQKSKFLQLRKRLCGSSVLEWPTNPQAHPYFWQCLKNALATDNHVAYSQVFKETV
Experiment: HEK293-Blue-hTLR-7 cells assay (SEAP reporter, R848 stimulation)
Format: cell-based
Parameters: host or cells: HEK293 (HEK-Blue)
Details: HEK293-Blue-hTLR7 cells, R848, 20 hrs; read-out: HEK/hTLR7 IC50
How it was run: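 HEK293-Blue cells stably expressing human TLR7 with an NF-κB/AP-1-driven SEAP reporter were treated with serially diluted compound (1% DMSO final) plus R848 for 20 h at 37 °C. Supernatant SEAP activity was measured with QUANTI-Blue substrate after 2 h at 37 °C, with absorbance read at 620-655 nm.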

SMILES	IC50 [nM]
C[C@@H]1CN(c2ccc(C#N)c3ncccc23)C[C@H](CN2CCN(c3cnc4c(c3)CNC4)CC2)O1 [Example 10, 5-[(2S,6R)-2-[[4-(6,7-dihydro-5H-pyrrolo[3,4-b]pyridin-3-yl)piperazin-1-yl]methyl]-6-methyl-morpholin-4-yl] quinoline-8-carbonitrile]	35
[2H]c1ccc2c(N3C[C@H](CN4CCN(c5ccc6c(n5)CN[C@@H]6C)CC4)O[C@H](C)C3)ccc(C#N)c2n1 (single isomer, unassigned) [Example 98]	8
C[C@@H]1CN(c2ccc(C#N)c3nccnc23)C[C@H](CN2CCN(c3cc4c(cn3)CCN[C@H]4C)CC2)O1 (single isomer, unassigned) [Example 88]	6
[2H]c1nc2c(C#N)ccc(N3C[C@H](CN4CCN(c5ccc6c(n5)CN[C@H]6C)CC4)O[C@H](C)C3)c2nc1[2H] (single isomer, unassigned) [Example 96]	4
C[C@@H]1CN(c2ccc(C#N)c3nccnc23)C[C@H](CN2CCN(c3cc4c(cn3)[C@@H](C)NCC4)CC2)O1 (single isomer, unassigned) [Example 86]	6
C[C@@H]1CN(c2ccc(C#N)c3nccnc23)C[C@H](CN2CCN(c3cc4c(cn3)CCN[C@@H]4C)CC2)O1 (single isomer, unassigned) [Example 87]	4
[2H]c1nc2c(C#N)ccc(N3C[C@H](CN4CCN(c5cc6c(cn5)[C@@H](C)NCC6)CC4)O[C@H](C)C3)c2nc1[2H] (single isomer, unassigned) [Example 95]	5

Further molecules by falling IC50, results first:

IC50 [nM]	SMILES
42	C[C@@H]1CN(c2ccc(C#N)c3ncccc23)C[C@H](CN2CCN(c3ccc4c(c3)CNCC4)CC2)O1 [Example 9, 5-[(2R,6S)-2-methyl-6-[[4-(1,2,3,4-tetrahydroisoquinolin-7-yl)piperazin-1-yl]methyl]morpholin-4-yl]quinoline-8-carbonitrile]
11	[2H]c1ccc2c(N3C[C@H](CN4CCN(c5ccc6c(n5)CN[C@H]6C)CC4)O[C@H](C)C3)ccc(C#N)c2n1 (single isomer, unassigned) [Example 99]
7	[2H]c1nc2c(C#N)ccc(N3C[C@H](CN4CCN(c5ccc6c(n5)CN[C@@H]6C)CC4)O[C@H](C)C3)c2nc1[2H] (single isomer, unassigned) [Example 97]
4	[2H]c1nc2c(C#N)ccc(N3C[C@H](CN4CCN(c5cc6c(cn5)[C@H](C)NCC6)CC4)O[C@H](C)C3)c2nc1[2H] (single isomer, unassigned) [Example 94]
